System: intestinal tight junction permeability
Assay: Inflammatory mediated intestinal tight junction permeability
Conditions: no method or data given

`CCCCC/C=C\C/C=C\C/C=C\CCCCC(=O)O` [GLA, gamma linolenic acid] was tested, and the “reduction of inflammatory mediated intestinal tight junction permeability” value was “effectively reduce inflammatory mediated intestinal tight junction permeability”.

— patent US20080171720A1, “Nutritional Supplement For Hiv Patients” (N.V. Nutricia, priority 2005, published 2008)
